Test system: Human subcutaneous adipocytes
Assay: Adipocyte lipolysis assay (suppression of isoproterenol-stimulated fatty acid release)
Assay type: cell-based
Conditions: Homo sapiens, Adipocyte; test compound concentration giving 50% fatty acid concentration reduction percentage in culture supernatant; 1 μM isoproterenol, 5 hours incubation; reduction by 100 μM nicotinic acid set at 100%
Source text: The suppressive or promoting activity of a test compound on the lipolysis of neutral fat can be assayed according to an adipocyte lipolysis assay as a cell line assay. If a beta adrenoceptor is stimulated with isoproterenol or the like in adipocytes, lipolysis action in which neutral fat accumulated in the cells is decomposed into fatty acid and glycerol can be promoted, and as a result, the amount of such fatty acid or glycerol released out of the cells can be increased. When a test compound that suppresses lipolysis is added to adipocytes, lipolysis-promoting action by isoproterenol stimulation is reduced, and the concentration of fatty acid or glycerol in a medium is decreased. Accordingly, the suppressive activity of a test compound on lipolysis can be assayed by measuring the reduction percentage of the fatty acid concentration or glycerol concentration in a culture supernatant. Likewise, the promoting activity of a test compound on lipolysis can be assayed by measuring the increase percentage of the fatty acid concentration or glycerol concentration in a medium.
• (1) Human subcutaneous adipocytes disseminated onto a 96 well (Dainippon Sumitomo Pharma Co., Ltd.: F-SA-1096) • (2) Adipocyte Maintenance Medium (Dainippon Sumitomo Pharma Co., Ltd.: AM 1) • (3) Lipolysis assay buffer [137 mM NaCl, 5 mM KCl, 4.2 mM NaHCO3, 1.3 mM CaCl2, 0.5 mM KH2PO4, 0.5 mM MgCl2, 0.5 mM MgSO4, 5 mM Glucose, 20 mM Hepes (pH 7.4), 1% BSA, 1 μM Isoproterenol] • (4) NEFA-C Test Wako (Wako Pure Chemical Industries, Ltd.) Preparation of Screening Materials
In this operation, the actual concentration of the test compound in the buffer was 1/1000 of the above-described concentration.
The above-described subcutaneous adipocytes were cultured in 200 μL of an Adipocyte Maintenance Medium in each well for 7 days. During this culturing operation, the medium was exchanged with a fresh one every 3 days. The medium was exchanged by discarding 100 μL of the medium in each well and then adding 100 μL of a fresh Adipocyte Maintenance Medium to the well. Thereafter, the adipocytes were washed with a Lipolysis assay buffer. Subsequently, 50 μL of a Lipolysis assay buffer that contained the above-described test compound was added to each well, and it was then incubated for 5 hours. In order to obtain the measurement value of the test compound in each concentration, 5 wells on a 96-well plate were used with respect to each concentration. As a positive control of a compound having lipolysis suppressive activity, nicotinic acid was used with reference to a previous report [Green A et. al., J. Biol. Chem., 1992, 267(5), 3223-9].
40 μL of a culture supernatant was extracted from each well, and the fatty acid concentration in the supernatant was then measured. Such fatty acid concentration was measured as follows, using the above-described NEFA-C Test Wako. 80 μL of liquid A included in the kit was added to 40 μL of the culture supernatant extracted from each well, and the obtained mixture was then incubated at 37° C. for 10 minutes. Thereafter, 160 μL of liquid B was added, and the obtained mixture was further incubated at 37° C. for 10 minutes. Thereafter, the absorbance at a wavelength of 550 nm was measured. At the same time, a standard fatty acid solution included in the kit was diluted to prepare a dilution series having a volume of 40 μL. According to the same operations as described above, liquid A and liquid B were added, and the absorbance was then measured. In accordance with instructions included with the kit, a calibration curve was prepared. Based on the thus prepared calibration curve, the fatty acid concentration in the culture supernatant was calculated. The reduction percentage of the fatty acid concentration was calculated with the following formula, setting the reduction percentage obtained by addition of 100 μM (final concentration) of nicotinic acid at 100%. […]

Question: With CCc1c(-c2ccccc2)ncn1CCC(=O)Nc1cn(CC)cc1C(=O)O [Example 28, 4-{3-(4-Phenyl-5-ethylimidazol-1-yl)propanoyl}amino-1-ethylpyrrole-3-carboxylic acid] as the compound, how does the IC50 read?
Answer: 19 nM

Question: With CCc1c(-c2ccc(O)cc2)nsc1CCC(=O)Nc1cn(CC)cc1C(=O)O [Example 58, 4-{3-[4-Ethyl-3-(4-hydroxyphenyl)isothiazol-5-yl]propanoylamino}-1-ethylpyrrole-3-carboxylic acid] as the compound, how does the IC50 read?
Answer: 72 nM

Question: Which IC50 does the source give for O=C(CCc1nc(-c2ccc(O)cc2)no1)Nc1cn(Cc2ccccc2)cc1C(=O)O [Example 49, 4-{3-[3-(4-Hydroxyphenyl)-1,2,4-oxadiazol-5-yl]propanoyl}amino-1-benzylpyrrole-3-carboxylic acid] here?
Answer: 135 nM

Question: How did the IC50 turn out when CCn1cc(NC(=O)CCc2cnn(-c3ccccc3)c2C2CC2)c(C(=O)O)c1 [Example 29] was run?
Answer: 42 nM

Question: Which IC50 does the source give for CCn1cc(NC(=O)C(F)Cc2cnn(-c3ccccc3)c2C2CC2)c(C(=O)O)c1 (centres unmarked) [Example 30] here?
Answer: 42 nM

Question: Cn1cc(NC(=O)CCc2sc(-c3ccccc3)nc2Cl)c(C(=O)O)c1 [Example 7, 4-[3-(4-Chloro-2-phenylthiazol-5-yl)propanoyl]amino-1-methylpyrrole-3-carboxylic acid] was tested. Which IC50 did it give?
Answer: 1500 nM

Question: With CCc1c(-c2ccc(O)cn2)noc1CC(F)(F)C(=O)Nc1cn(CC)cc1C(=O)O [Example 66, 4-{3-[4-Ethyl-3-(5-hydroxypyridin-2-yl)isoxazol-5-yl]-2,2-difluoropropanoyl}amino-1-ethylpyrrole-3-carboxylic acid] as the compound, how does the IC50 read?
Answer: 10 nM

Question: How did the IC50 turn out when CCn1cc(NC(=O)C(C)Cc2cnc(-c3ccc(O)cc3)s2)c(C(=O)O)c1 (centres unmarked) [Example 54, 4-{3-[2-(4-Hydroxyphenyl)thiazol-5-yl]-2-methylpropanoyl}amino-1-ethylpyrrole-3-carboxylic acid] was run?
Answer: 228 nM

Question: With CCn1cc(NC(=O)C(F)(F)Cc2cc(-c3ccc(O)cc3)on2)c(C(=O)O)c1 [Example 64, 4-{3-[5-(4-Hydroxyphenyl)isoxazol-3-yl]-2,2-difluoropropanoyl}amino-1-ethylpyrrole-3-carboxylic acid] as the compound, how does the IC50 read?
Answer: 29 nM

Question: For Cn1cc(NC(=O)CCc2sc(-c3ccc(O)cc3)nc2Cl)c(C(=O)O)c1 [Example 8, 4-{3-[4-Chloro-2-(4-hydroxyphenyl)thiazol-5-yl]propanoyl}amino-1-methylpyrrole-3-carboxylic acid], which IC50 is on record?
Answer: 76 nM

Question: With CCn1cc(NC(=O)CCc2cc(-c3ccc(O)cc3)no2)c(C(=O)O)c1 [Example 44, 4-{3-[3-(4-Hydroxyphenyl)isoxazol-5-yl]propanoyl}amino-1-ethylpyrrole-3-carboxylic acid] as the compound, how does the IC50 read?
Answer: 8 nM

Question: How did the IC50 turn out when CCCCn1cc(NC(=O)CCc2nc(-c3ccc(O)cc3)no2)c(C(=O)O)c1Cl [Example 52, 4-{3-[3-(4-Hydroxyphenyl)-1,2,4-oxadiazol-5-yl]propanoyl}amino-2-chloro-1-butylpyrrole-3-carboxylic acid] was run?
Answer: 771 nM

Question: For Cn1cc(NC(=O)CCc2cnc(-c3ccc(O)cc3)s2)c(C(=O)O)c1 [Example 6, 4-{3-[2-(4-Hydroxyphenyl)thiazol-5-yl]propanoyl}amino-1-methylpyrrole-3-carboxylic acid], which IC50 is on record?
Answer: 24 nM

Question: How did the IC50 turn out when O=C(CCc1nc(-c2ccc(O)cn2)no1)Nc1cn(Cc2cc(F)cc(F)c2)cc1C(=O)O [Example 15, 4-{3-[(5-Hydroxypyridin-2-yl)-1,2,4-oxadiazol-5-yl]propanoyl}amino-1-(3,5-difluorobenzyl)pyrrole-3-carboxylic acid] was run?
Answer: 2 nM

Question: Which IC50 does the source give for CCn1cc(NC(=O)C(F)Cc2sc(-c3ccc(O)cc3)nc2Cl)c(C(=O)O)c1 (centres unmarked) [Example 37, 4-{3-[4-Chloro-2-(4-hydroxyphenyl)thiazol-5-yl]-2-fluoropropanoyl}amino-1-ethylpyrrole-3-carboxylic acid] here?
Answer: 13 nM

Question: CCn1cc(NC(=O)CCc2onc(-c3ccc(O)cc3)c2Cl)c(C(=O)O)c1 [Example 33, 4-{3-[4-Chloro-(4-hydroxyphenyl)isoxazol-5-yl]propanoyl}amino-1-ethylpyrrole-3-carboxylic acid] was tested. Which IC50 did it give?
Answer: 7 nM

Question: CCn1cc(NC(=O)CCc2noc(-c3ccc(O)cc3)c2C(F)(F)F)c(C(=O)O)c1 [Example 53, 4-{3-[4-Trifluoromethyl-5-(4-hydroxyphenyl)isoxazol-3-yl]propanoyl}amino-1-ethylpyrrole-3-carboxylic acid] was tested. Which IC50 did it give?
Answer: 138 nM

Question: CCn1cc(NC(=O)CCc2onc(-c3ccc(O)cc3)c2C(F)F)c(C(=O)O)c1 [Example 65, 4-{3-[4-Difluoromethyl-3-(4-hydroxyphenyl)isoxazol-5-yl]propanoyl}amino-1-ethylpyrrole-3-carboxylic acid] was tested. Which IC50 did it give?
Answer: 18 nM

Question: Which IC50 does the source give for Cn1cc(NC(=O)CCc2ccc3c(Cl)c(O)ccc3c2)c(C(=O)O)c1 [Example 2, 4-[3-(5-Chloro-6-hydroxy-2-naphthyl)propanoyl]amino-1-methylpyrrole-3-carboxylic acid] here?
Answer: 535 nM

Question: With O=C(CCc1cnc(-c2ccccc2)s1)Nc1cn(CCF)cc1C(=O)O [Example 14, 4-[3-(2-Phenylthiazol-5-yl)propanoyl]amino-1-(2-fluoroethyl)pyrrole-3-carboxylic acid] as the compound, how does the IC50 read?
Answer: 255 nM

Question: With CCCCn1cc(NC(=O)CCc2nc(-c3ccc(O)cc3)no2)c(C(=O)O)c1C [Example 50, 4-{3-[3-(4-Hydroxyphenyl)-1,2,4-oxadiazol-5-yl]propanoyl}amino-1-butyl-2-methylpyrrole-3-carboxylic acid] as the compound, how does the IC50 read?
Answer: 823 nM

Question: Which IC50 does the source give for Cn1cc(NC(=O)CCc2cnc(-c3ccccc3)s2)c(C(=O)O)c1 [Example 5, 4-{3-(2-Phenylthiazol-5-yl)propanoyl}amino-1-methylpyrrole-3-carboxylic acid] here?
Answer: 663 nM

Question: How did the IC50 turn out when COCCCn1cc(NC(=O)CCc2cnc(-c3ccc(O)cc3)s2)c(C(=O)O)c1 [Example 18, 4-{3-[2-(4-Hydroxyphenyl)thiazol-5-yl]propanoyl}amino-1-(3-methoxypropyl)pyrrole-3-carboxylic acid] was run?
Answer: 9 nM

Question: For CCCn1cc(NC(=O)CCc2cc(-c3ccc(O)cc3)no2)c(C(=O)O)c1 [Example 61, 4-{3-[3-(4-Hydroxyphenyl)isoxazol-5-yl]propanoyl}amino-1-propylpyrrole-3-carboxylic acid], which IC50 is on record?
Answer: 22 nM

Question: How did the IC50 turn out when CCn1cc(NC(=O)CCc2nc(-c3ccc(O)cc3)no2)c(C(=O)O)c1 [Example 12, 4-{3-[3-(4-Hydroxyphenyl)-1,2,4-oxadiazol-5-yl]propanoyl}amino-1-ethylpyrrole-3-carboxylic acid] was run?
Answer: 29 nM

Question: For CCn1cc(NC(=O)C(F)Cc2cnc(-c3ccc(O)cc3)s2)c(C(=O)O)c1 (racemic) [Example 22, 4-{3-[2-(4-Hydroxyphenyl)thiazol-5-yl]-2-fluoropropanoyl}amino-1-ethylpyrrole-3-carboxylic acid], which IC50 is on record?
Answer: 29 nM

Question: How did the IC50 turn out when CCc1c(-c2ccc(O)cc2)noc1CCC(=O)Nc1cn(CC)cc1C(=O)O [Example 35, 4-{3-[4-Ethyl-(4-hydroxyphenyl)isoxazol-5-yl]propanoyl}amino-1-ethylpyrrole-3-carboxylic acid] was run?
Answer: 8 nM

Same assay, conditions: test compound concentration giving 50% fatty acid concentration reduction percentage in culture supernatant; 1 μM isoproterenol, 5 hours incubation; reduction by 100 μM nicotinic acid set at 100%

Question: For CCn1cc(NC(=O)C(F)Cc2cnc(-c3ccc(O)cc3)s2)c(C(=O)O)c1 (single isomer, unassigned; (+)) [Example 23b, (+)-4-{3-[2-(4-Hydroxyphenyl)thiazol-5-yl]-2-fluoropropanoyl}amino-1-ethylpyrrole-3-carboxylic acid], which IC50 is on record?
Answer: 103 nM

Question: For CCn1cc(NC(=O)C(F)Cc2cnc(-c3ccc(O)cc3)s2)c(C(=O)O)c1 (single isomer, unassigned; (-)) [Example 23a, (−)-4-{3-[2-(4-Hydroxyphenyl)thiazol-5-yl]-2-fluoropropanoyl}amino-1-ethylpyrrole-3-carboxylic acid], which IC50 is on record?
Answer: 15 nM

From US8648103B2, “Nitrogen-containing aromatic heterocyclyl compound” (Daiichi Sankyo Company, Limited, priority 2008, dated 2014)
